Experimental data: patent publication US20240158446A1, “CYCLIC COMPOUND HAVING SELECTIVE INHIBITORY ACTION ON KRAS OVER HRAS AND NRAS” (CHUGAI SEIYAKU KABUSHIKI KAISHA, priority 2021, published 2024)
*1 amine or outer side, *2 acyl side, *3 side chain or, on linkers, in order; H or OH if unused. Where a SMILES comes first, the peptide text is derived from it. Bridges are numbered along the chain shown (N, C = ends). [ ]: non-standard residue; d: D form. The star is where a group is joined. ξ: configuration not given here. hPhe(3-Cl-4-CF3) = N[C@@H](CCc1ccc(C(F)(F)F)c(Cl)c1)C(=O)O; X26 = C=CCN([C@@H](Cc1ccccc1)C(=O)[*:2])[*:1]; NMeGly(cPent) = CN[C@H](C(=O)O)C1CCCC1; NMeNle(5-ene) = C=CCC[C@H](NC)C(=O)O; dIle(3ξ) = CCC(C)[C@@H](N)C(=O)O; NMeD = CN[C@@H](CC(=O)O)C(=O)O; NMeL = CN[C@@H](CC(C)C)C(=O)O; Morpholide = C1CN(*)CCO1; Ac5c = NC1(C(=O)O)CCCC1; Sar = CNCC(=O)O

Assays:
[1] = biological target: GDP-bound HRAS wild-type protein (Homo sapiens, UniProt P01112); test: Binding to HRAS by surface plasmon resonance (SPR), Single Cycle Kinetics; conditions: SPR, GDP-bound HRAS wild-type protein vs GDP-bound KRAS wild-type protein
[2] = biological target: GDP-bound KRAS wild-type protein (Homo sapiens, UniProt P01116); test: Binding to KRAS by surface plasmon resonance (SPR), Single Cycle Kinetics; conditions: SPR Single Cycle Kinetics, GDP-bound KRAS wild-type protein, 1:1 binding model; read-out: KRAS KD
[3] = biological target: GDP-bound NRAS wild-type protein (Homo sapiens, UniProt P01111); test: Binding to NRAS by surface plasmon resonance (SPR), Single Cycle Kinetics; conditions: SPR, GDP-bound NRAS wild-type protein vs GDP-bound KRAS wild-type protein
Sequence of GDP-bound NRAS wild-type protein (P01111 whole entry): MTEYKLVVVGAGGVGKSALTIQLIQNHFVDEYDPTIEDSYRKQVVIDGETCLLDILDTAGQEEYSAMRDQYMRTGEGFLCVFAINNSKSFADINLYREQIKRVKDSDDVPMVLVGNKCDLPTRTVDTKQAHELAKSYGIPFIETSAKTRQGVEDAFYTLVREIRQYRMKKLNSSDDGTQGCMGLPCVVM

Sequence of GDP-bound HRAS wild-type protein (P01112 whole entry): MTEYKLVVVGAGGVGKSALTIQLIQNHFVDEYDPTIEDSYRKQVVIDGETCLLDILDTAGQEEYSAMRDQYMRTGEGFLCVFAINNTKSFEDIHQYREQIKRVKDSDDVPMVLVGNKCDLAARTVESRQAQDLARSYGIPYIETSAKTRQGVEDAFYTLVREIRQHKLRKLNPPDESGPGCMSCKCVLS
Sequence of GDP-bound KRAS wild-type protein (P01116 whole entry): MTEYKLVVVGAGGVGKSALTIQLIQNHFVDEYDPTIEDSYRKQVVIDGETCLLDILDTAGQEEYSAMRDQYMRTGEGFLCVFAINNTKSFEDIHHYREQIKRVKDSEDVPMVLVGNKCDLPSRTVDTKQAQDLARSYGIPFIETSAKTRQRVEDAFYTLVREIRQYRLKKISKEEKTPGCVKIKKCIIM

| SMILES | HRAS/KRAS (ratio of KD value with respect to HRAS to KD value with respect to KRAS) [1] | Kd [2] [nM] | NRAS/KRAS (ratio of KD value with respect to NRAS to KD value with respect to KRAS) [3] |
| --- | --- | --- | --- |
| CC[C@H](C)[C@@H]1NC(=O)[C@H](CC(C)C)N(C)C(=O)C[C@@H](C(=O)N2CCOCC2)N(C)C(=O)[C@H](C2CCCC2)N(C)C(=O)C2(CCCC2)NC(=O)[C@H](C)N(CC)C(=O)[C@H](CCc2cc(F)c(C(F)(F)F)c(F)c2)NC(=O)CN(C)C(=O)[C@H](Cc2ccc(C(F)(F)F)cc2)N2CCCC[C@@H](C2=O)N(C)C(=O)CN(C)C1=O [PP0589] | B (a compound having 3 or more and less than 10 is denoted as B) | 0.36 | B (a compound having 3 or more and less than 10 is denoted as B) |
| CC[C@H](C)[C@@H]1NC(=O)[C@H](CC(C)C)NC(=O)C[C@@H](C(=O)N2CCOCC2)N(C)C(=O)[C@H](C2CCCC2)N(C)C(=O)C2(CCCC2)NC(=O)[C@@H]2CCCN2C(=O)[C@H](CCc2cc(F)c(C(F)(F)F)c(F)c2)NC(=O)CN(C)C(=O)[C@H](Cc2ccc(C(F)(F)F)cc2)N2CCCC[C@@H](C2=O)N(C)C(=O)CN(C)C1=O [PP0590] | B (a compound having 3 or more and less than 10 is denoted as B) | 0.27 | C (A compound having a KD ratio of 0.1 or more and less than 3 is denoted as C) |
| CC[C@H](C)[C@@H]1NC(=O)[C@H](CC(F)(F)F)N(C)C(=O)C[C@@H](C(=O)N2CCOCC2)N(C)C(=O)[C@H](C2CCCC2)N(C)C(=O)C2(CCCC2)NC(=O)[C@@H]2CCCN2C(=O)[C@H](CCc2cc(F)c(C(F)(F)F)c(F)c2)NC(=O)CN(C)C(=O)[C@H](Cc2ccc(C(F)(F)F)cc2)N2CCCC[C@@H](C2=O)N(C)C(=O)CN(C)C1=O [PP0594] | B (a compound having 3 or more and less than 10 is denoted as B) | 0.073 | C (A compound having a KD ratio of 0.1 or more and less than 3 is denoted as C) |
| CC(C)C[C@H]1C(=O)N[C@@H](C2CCC2)C(=O)N(C)CC(=O)N(C)[C@H]2CCCCN(C2=O)[C@@H](Cc2ccc(C(F)(F)F)cc2)C(=O)N(C)CC(=O)N[C@@H](CCc2cc(F)c(C(F)(F)F)c(F)c2)C(=O)N2CCC[C@H]2C(=O)NC2(CCCC2)C(=O)N(C)[C@@H](C2CCCC2)C(=O)N(C)[C@H](C(=O)N2CCOCC2)CC(=O)N1C [PP0596] | B (a compound having 3 or more and less than 10 is denoted as B) | 0.1 | B (a compound having 3 or more and less than 10 is denoted as B) |
| CCC(CC)[C@@H]1NC(=O)[C@H](CC(C)C)N(C)C(=O)C[C@@H](C(=O)N2CCOCC2)N(C)C(=O)[C@H](C2CCCC2)N(C)C(=O)C2(CCCC2)NC(=O)[C@@H]2CCCN2C(=O)[C@H](CCc2cc(F)c(C(F)(F)F)c(F)c2)NC(=O)CN(C)C(=O)[C@H](Cc2ccc(C(F)(F)F)cc2)N2CCCC[C@@H](C2=O)N(C)C(=O)CN(C)C1=O [PP0597] | B (a compound having 3 or more and less than 10 is denoted as B) | 0.33 | B (a compound having 3 or more and less than 10 is denoted as B) |
| C=CCC[C@H]1C(=O)N(CC=C)[C@@H](Cc2ccccc2)C(=O)N(C)CC(=O)N[C@@H](CCc2ccc(C(F)(F)F)c(Cl)c2)C(=O)N2CCC[C@H]2C(=O)NC2(CCCC2)C(=O)N(C)[C@@H](C2CCCC2)C(=O)N(C)[C@H](C(=O)N2CCOCC2)CC(=O)N(C)[C@@H](CC(C)C)C(=O)N[C@H](C(C)CC)C(=O)N(C)CC(=O)N1C (stereo partly drawn) [PP0599] ([NMeL][dIle(3ξ)][Sar][NMeNle(5-ene)][X26][Sar][hPhe(3-Cl-4-CF3)]P[Ac5c][NMeGly(cPent)][NMeD]-Morpholide; lactam N-11) | B (a compound having 3 or more and less than 10 is denoted as B) | 180 | C (A compound having a KD ratio of 0.1 or more and less than 3 is denoted as C) |
